Test results reported in US12303498B2, “ALK5 inhibitors as skeletal muscle hypertrophy inducers” (CYTOO, priority 2018, dated 2025).
Like-named read-outs stand apart in the source and are kept apart here.

Legend:
[1] = system: Human primary myoblasts (healthy donors 3, 1 and 5); assay: MyoScreen hypertrophy assay on myotubes from healthy donors; format: cell-based; settings: for EC50 / activity at 10 µM: Homo sapiens, Myoblast
Protocol: (§1) Healthy donor primary skeletal cells (Donor 1, Donor 3 and Donor 5) were Clonetics™ Human Skeletal Muscle Myoblasts (HSMM). In addition, cells from three DMD (Duchenne muscular dystrophy) donors (Donor Z, W and D1) and from a healthy donor (Donor A) were sourced.
(§2) Hypertrophy and Atrophy Rescue assays were performed using an in vitro fully automated human myotube model called MyoScreen™ (Cytoo, France). This model relies on a tight control of the microenvironment that guides the differentiation of human primary myoblasts. Myotubes formed on MyoScreen™ micropatterns present a high level of maturation together with a highly standardized morphology.
(§3) Human primary myoblasts from donors were seeded in MyoScreen™ micropatterned 96-well plates (Cytoo, France), let them adhere for 24 h in growth medium, then run the differentiation in a low horse serum medium for at least 5 days.
(§4) At Day 0, MyoScreen™ plates (Cytoo, France) containing micropatterns were pre-filled with 200 μl/well of growth medium and stored in the incubator at 37° C. Human primary myoblasts were detached from the flasks, count, and seeded into the plates with 15 000 cells per well in 100 μl of growth medium.
(§5) At Day 1, the growth medium was changed for a differentiation medium, 300 μl/well (DMEM with 0.1% horse serum) in which myoblasts started differentiating and forming myotubes.
(§6) At Day 2, the differentiation medium was changed. Then candidate compounds were diluted with differentiation medium and transferred into the plate. The final concentration of DMSO should be not higher than 0.1%. At least 6 wells were treated with the vehicle as a basal control, and 6 wells were treated with IGF-1 at 100 ng/ml as positive hypertrophy control.
(§7) At Day 6, cells were fixed with formalin 5% for 30 min at room temperature, then permeabilized with Triton X-100 at 0.1% in PBS for 15 min, and blocked with PBS+BSA 1% for 20 minutes. Myotubes were incubated with first antibody against Troponin T in blocking buffer for 1 h30, washed three times with PBS, incubated with secondary antibody and Hoescht ( 1/10000) for 1 h30, and washed three times with PBS.
(§8) Images were acquired at 10× magnification with an Operetta High Content Imaging System. Image processing and analysis were performed with dedicated algorithms developed on the Acapella High Content Imaging Software (Perkin Elmer) by CYTOO. Eleven fields per well were acquired.
First, segmentation of myotubes and nuclei were done using respectively the Troponin T staining intensity and the Hoechst staining. […] The threshold of segmentation was set-up in order to avoid detecting the background noise and eliminate aberrant small myotube structures.
(§9) Then, an image clean-up step was performed on the Troponin T images in order to remove myotubes that touch the border of the image. The final valid myotubes were used to extract myotube morphology parameters including the myotube width and area, and the number of nuclei per myotube.
Nuclei Count, Fusion Index, Mean myotube Area and Number of nuclei per myotube have been validated as relevant and sensitive readouts of myotube differentiation as well as atrophic and hypertrophic induction.
A primary screening was run to identify hypertrophy compounds that increase the myotube differentiation and size. Candidate compounds were tested at 10 μM in monoplicate on Donor 3 cells.
A retest was run, by cherry picking (same compound batch as primary screening): each hit was tested in the same conditions as in the Primary Screening (Donor 3, 10 μM) in six well replicates.

[2] = system: cells from DMD donors (Donor Z, W and D1); assay: MyoScreen hypertrophy assay on myotubes from DMD donors; format: cell-based, human; settings: fusion index (compound)*100/basal control; for Donor W (% Activity): DMD Donor W; for Donor Z (% Activity): DMD Donor Z; for Donor D1 (% Activity): DMD Donor D1
Protocol: as §1, §2, §3, §4, §5, §6, §7, §8
(§10) First, segmentation of myotubes and nuclei were done using respectively the Troponin T staining intensity and the Hoechst staining. One to two myotubes per micropattern were usually identified (a myotube is a troponin T staining area that includes at least 2 nuclei). The threshold of segmentation was set-up in order to avoid detecting the background noise and eliminate aberrant small myotube structures. At the end of this first step, specific readouts were calculated in the whole well, like the nuclei count and the fusion index (percentage of nuclei included in troponin T staining) Usually around 50 to 60 myotubes were detected per well in a control condition.
as §9

[3] = system: Donor Z (DMD donor) myotubes; assay: Hypertrophy assay, combinations ALK5 inhibitor and glucocorticoid; format: cell-based, human; settings: 4 days of treatment, prednisolone 10 nM, RepSox or GW788388 300 nM, alone or combined
[4] = system: Myotubes from the healthy donor 3 atrophied by TNF-α, IL-1β, Myostatin, TGF-β or dexamethasone; assay: Atrophy rescue assay (MyoScreen); format: cell-based, human; set-up: key: +++: total rescue; ++: partial rescue; +: low rescue; settings: for atrophy rescue, IL-1: atrophy inducer IL-1β 25 ng/mL; for atrophy rescue, TGF-β: atrophy inducer TGF-β 0.5 ng/mL; for atrophy rescue, TNF-alpha: atrophy inducer TNF-α 2 ng/mL; for atrophy rescue, dexamethasone: atrophy inducer dexamethasone 100 μM; for atrophy rescue, Myostatin: atrophy inducer myostatin 150 ng/mL
Protocol: as §2, §3, §4, §5, §6
For Atrophy Rescue assay, one hour after candidate compound addition, atrophy inducers were added at the following final concentration: 150 ng/mL of myostatin, 25 ng/mL of IL-1β, 2 ng/mL of TNF-α, 0.5 ng/mL of TGF-β and 100 μM of dexamethasone.
as §7, §8, §10, §9
Atrophy Rescue assays were performed in triplicate in the presence of atrophy inducers, i.e. TNF-α, IL-1β, Myostatin, TGF-β and dexamethasone.
Atrophy rescue assays was performed for RepSox. Myotubes from the healthy donor 3 were atrophied using different inducers: TNF-α, IL-1β, Myostatin, TGF-β and dexamethasone.

ACh-stimulated myotubes = assay: Calcium flux assay after ACh stimulation; format: cell-based, human; settings: for increase in [Ca2+]i peak amplitude compared to control myotubes: 20 μM ACh stimulation, myotubes differentiated 8 days, 7 days with compound
Protocol: Cells were then incubated for 1 h with 2 μM Fluo-4 AM (F14201-Invitrogen) in an incubator (37° C., 5% CO2). After washing to remove unloaded dye, myotube responses to 20 μM ACh (A6625-Sigma-Aldrich), were videoimaged. Stream acquisitions were set at 1 sec intervals and one field of view was acquired per well. Images were processed and analyzed automatically using a dedicated software developed in-house integrating the open-source ImageJ framework. The image analysis tool segments the myotubes in images acquired in the same well. The Fluo-4 total fluorescence intensity was measured inside each myotube and corrected for background. The total intensity was normalized to the myotube area to obtain the mean fluorescence intensity readout.

[5] = system: AChR clusters in MyoScreen myotubes; assay: Acetylcholine receptor clustering assay; format: cell-based, human; settings: 8 days of differentiation including 7 days of drug treatment; for total AChR area increase: vs control myotubes
Protocol: The MyoScreen™ protocol was performed as described in the Hypertrophy and Atrophy rescue assay described in Example 1 but was stopped at Day 9 instead of Day 6. At the end of the assay, AchR were immunostained using a specific antibody in addition to Troponin T and nuclei. Images were acquired at ×20 with an Operetta High Content Imaging System from Perkin Elmer. Image processing and analyses were performed with a dedicated algorithm developed on the Acapella High Content Imaging Software (Perkin Elmer). Specific readouts were calculated in each well: nuclei count and myotube fusion index, number of AchR, AchR mean area, AchR total area normalized by the myotube total area.
Remarkably, when labeled with a specific anti-AChR antibody, MyoScreen myotubes at 6 days post-differentiation display AChR clusters punctuated along the sarcolemma membrane in the middle of the myotube fibre and in distinct regions at the ends of myotubes. To develop an automated AChR cluster assay, an AChR detection routine was developed that was sensitive and robust enough to analyze aggregate number and size clusters in images using the Operetta/Acapella system.

[6] = system: Myotubes from Donors 5 and A
Excerpt: Cells were washed with calcium buffer containing (in mM): 130 NaCl, 5.4 KCl, 1.8 CaCl2, 0.8 MgCl2, 5.6 D-glucose, 10 Hepes, pH 7.4. […] After washing to remove unloaded dye, myotube responses to electrical stimulation pulses were monitored using the FDSS/μCELL/EFS from Hamamatsu Photonics. Twitch stimulations were run at 0.2 Hz with pulse width 50 ms 5V for 60 seconds. Tetanus stimulation was run at 30 Hz with pulse width 15 ms 3V for 20 seconds. The Fluo-4 total fluorescence intensity is measured in each well. For data presentation, fluorescence intensities (F) were normalized to the mean intensity of the first timepoints (F/F0).

[7] = system: myotubes stimulated with 100 μM ACh; assay: Contractile activity assay; format: cell-based, human; settings: 5 days of differentiation including 4 days (96 h) treatment, RepSox 2 μM
Protocol: Cells were washed with calcium buffer as above. Myotube contraction was induced by addition of 100 μM ACh for 3 mins after which myotubes were fixed and immunostained with troponin T antibody. Automated acquisition was performed on the Operetta platform with a x10/0.3 NA objective. Detaching myotubes were automatically detected and quantified using Acapella, based on the detection of high intensity regions within the edges of segmented myotubes that mark the spots where the myotubes detached.

[8] = second dose response assay, healthy Donor 3, read-out: EC50
[9] = second dose response assay, healthy Donor 3
[10] = first dose response assay, healthy Donor 1
[11] = first dose response assay, healthy Donor 3
[12] = first dose response assay, healthy Donor 5

Cc1cccc(-c2nn(C(=S)Nc3ccccc3)cc2-c2ccnc3ccccc23)n1 [A 83-01]
EC50 [1, 8]: 10 nM | % Activity [1, 9]: 127%

NC(=O)c1ccc(-c2nc(-c3ccccn3)c(-c3ccc4c(c3)OCCO4)[nH]2)cc1 [D 4476]
EC50 [1, 8]: < 1 nM | % Activity [1, 9]: 128%

O=C(NC1CCOCC1)c1ccc(-c2cc(-c3c[nH]nc3-c3ccccn3)ccn2)cc1 [GW 788388]
EC50 [1, 8]: 88 nM | % Activity [1, 9]: 130% | Donor W (% Activity) [2]: 118% | Donor Z (% Activity) [2]: 196%

c1ccc(-c2n[nH]cc2-c2ccnc3ccccc23)nc1 [LY 364947]
EC50 [1, 8]: 25 nM

C[C@]12C=CC(=O)C=C1CC[C@@H]1[C@@H]2[C@@H](O)C[C@@]2(C)[C@H]1CC[C@]2(O)C(=O)CO [Prednisolone, prednisolone]
increase in Fusion index [3]: 25% | increase in Myotube mean area [3]: does not enhance significantly

Cc1cccc(-c2n[nH]cc2-c2ccc(F)c(-c3cnn(CCO)c3)c2)n1 [R268712]
EC50 [1, 8]: 1 nM | % Activity [1, 9]: 132%

Cc1cccc(-c2n[nH]cc2-c2ccc3ncccc3n2)n1 [RepSox]
atrophy rescue, IL-1 [4]: ++ | atrophy rescue, TGF-β [4]: +++ | atrophy rescue, TNF-alpha [4]: ++ | atrophy rescue, dexamethasone [4]: +++ | atrophy rescue, Myostatin [4]: +++ | activity in dose responses on three healthy donors ([1]; Donors 3, 5 and 1): active on all donors | EC50 ([1]; first dose response assay, healthy Donor 1, read-out: Donor 1 EC50): 560 nM | EC50 ([1]; first dose response assay, healthy Donor 3, read-out: Donor 3 EC50): 5 nM | EC50 ([1]; first dose response assay, healthy Donor 5, read-out: Donor 5 EC50): 2.5 nM | activity at 10 µM ([1]; healthy Donor 3, 10 μM, monoplicate (IGF-1 100 ng/ml), % Activity = Myotube fusion index (compound)*100/Myotube Fusion index (basal control), read-out: Primary screening (% Activity)): 183% | activity at 10 µM ([1]; healthy Donor 3, 10 μM, six well replicates (IGF-1 100 ng/ml), fusion index vs basal control, read-out: Retest (% Activity)): 171% | EC50 [1, 8]: 5 nM | Donor 1 % Activity [1, 10]: 143% | Donor 3 % Activity [1, 11]: 140% | Donor 5 % Activity [1, 12]: 204% | increase in the fusion index or/and myotube area readouts ([1]; primary screening and retest, Donor 3, 10 μM): > 170% | % Activity [1, 9]: 140% | increase in [Ca2+]i peak amplitude compared to control myotubes (ACh-stimulated myotubes): 1.56 fold | number of retracting myotubes after ACh stimulation (ACh-stimulated myotubes; calcium flux time-lapse videos): marked increase | AChR clusters [5]: substantially more AChR clusters | total AChR area increase [5]: 6 fold | tetanus response ([6]; Donor 5 myotubes, RepSox 3 to 500 nM, tetanus stimulation 30 Hz, vs Control myotubes): increases with RepSox concentrations | calcium peak amplitude on repeated twitch electrical stimulations ([6]; Donor A and Donor 5 myotubes, RepSox 300 nM for 5 days, twitch 0.2 Hz): twice higher | increase in Fusion index [3]: 100% | increase in Myotube mean area [3]: 68% | Donor D1 (% Activity) [2]: 210% | Donor W (% Activity) [2]: 120% | Donor Z (% Activity) [2]: 176%

Cc1cccc(-c2[nH]c(C(C)(C)C)nc2-c2ccc3c(c2)OCO3)n1 [SB 505124]
EC50 [1, 8]: < 1 nM | % Activity [1, 9]: 136%

Cc1cccc(-c2nc(C(C)(C)C)[nH]c2-c2ccc3nccnc3c2)n1 [SB 525334]
EC50 [1, 8]: 3 nM | % Activity [1, 9]: 142%

Fc1ccc(Cl)cc1-c1nc(Nc2ccncc2)c2nccnc2n1 [SD208]
EC50 [1, 8]: 65 nM | % Activity [1, 9]: 138%

IGF-1: IGF-1 at 100 ng/ml as positive hypertrophy control
atrophy rescue, IL-1 [4]: +++ | atrophy rescue, TGF-β [4]: ++ | atrophy rescue, TNF-alpha [4]: +++ | atrophy rescue, dexamethasone [4]: +++ | atrophy rescue, Myostatin [4]: +++ | Donor 1 % Activity [1, 10]: 150% | Donor 3 % Activity [1, 11]: 178% | Donor 5 % Activity [1, 12]: 185% | Primary screening (% Activity) ([1]; healthy Donor 3, 10 μM, monoplicate (IGF-1 100 ng/ml), % Activity = Myotube fusion index (compound)*100/Myotube Fusion index (basal control)): 210% | Retest (% Activity) ([1]; healthy Donor 3, 10 μM, six well replicates (IGF-1 100 ng/ml), fusion index vs basal control): 190% | % Activity [1, 9]: 178% | increase in [Ca2+]i peak amplitude compared to control myotubes (ACh-stimulated myotubes): no effect | total AChR area increase [5]: no effect | active contractile force (percentage of myotubes that exhibit strong contractions) [7]: 67±5% | increase in Fusion index [3]: 160% | increase in Myotube mean area [3]: 54% | Donor D1 (% Activity) [2]: 163% | Donor W (% Activity) [2]: 100% | Donor Z (% Activity) [2]: 143%
